{"source": "paper PMC5218480", "about": "(PLoS ONE, 2017)", "tested_on": "MV-4-11 cells", "test": "Gene expression microarray analysis (Affymetrix PrimeView) and GSEA", "assay_type": "cell-based, human", "set-up": "RFU PODN (11730768_x_at) / Fold change /veh PODN (11730768_x_at) / RFU LINC00158 (11744669_a_at) / Fold change /veh LINC00158 (11744669_a_at) / RFU DUSP10 (11751237_a_at) / Fold change /veh DUSP10 (11751237_a_at) / RFU ID3 (11757404_x_at) / Fold change /veh ID3 (11757404_x_at) / RFU PLEKHG5 (11737974_s_at) / Fold change /veh PLEKHG5 (11737974_s_at) / RFU LRRC4B (11730491_at) / Fold change /veh LRRC4B (11730491_at) / RFU GIMAP4 (11747438_a_at) / Fold change /veh GIMAP4 (11747438_a_at) / RFU KRT8 (11758183_x_at) / Fold change /veh KRT8 (11758183_x_at) / RFU CNN1 (11734310_a_at) / Fold change /veh CNN1 (11734310_a_at) / RFU VPS37D (11726825_at) / Fold change /veh VPS37D (11726825_at) / RFU C10orf10 (11716522_x_at) / Fold change /veh C10orf10 (11716522_x_at) / RFU KIR2DL2 /// KIR2DL4 /// KIR2DL5A /// KIR2DL5B /// KIR2DS1 /// KIR2DS2 /// KIR2DS3 /// KIR2DS4 /// KIR3DL3 /// KIR3DL3 /// KIR3DS1 (11738374_at) / Fold change /veh KIR2DL2 /// KIR2DL4 /// KIR2DL5A /// KIR2DL5B /// KIR2DS1 /// KIR2DS2 /// KIR2DS3 /// KIR2DS4 /// KIR3DL3 /// KIR3DL3 /// KIR3DS1 (11738374_at) / RFU C1QL1 (11718748_at) / Fold change /veh C1QL1 (11718748_at) / RFU TMPRSS4 (11747572_a_at) / Fold change /veh TMPRSS4 (11747572_a_at) / RFU HAMP (11756126_x_at) / Fold change /veh HAMP (11756126_x_at) / RFU RNFT2 (11725882_a_at) / Fold change /veh RNFT2 (11725882_a_at) / RFU NR4A2 (11747474_a_at) / Fold change /veh NR4A2 (11747474_a_at) / RFU ABCC12 (11746883_a_at) / Fold change /veh ABCC12 (11746883_a_at) / RFU TMEM136 (11760407_x_at) / Fold change /veh TMEM136 (11760407_x_at) / RFU CLDN22 /// WWC2 (11732394_at) / Fold change /veh CLDN22 /// WWC2 (11732394_at) / RFU HLA-DPB1 (11760878_x_at) / Fold change /veh HLA-DPB1 (11760878_x_at) / RFU SPINT1 (11716480_a_at) / Fold change /veh SPINT1 (11716480_a_at) / RFU GAP43 (11754022_s_at) / Fold change /veh GAP43 (11754022_s_at) / RFU A4GNT (11735810_at) / Fold change /veh A4GNT (11735810_at) / RFU PRB3 (11715151_x_at) / Fold change /veh PRB3 (11715151_x_at) / RFU TUBB4B (11761932_at) / Fold change /veh TUBB4B (11761932_at) / RFU CAPN14 (11732068_a_at) / Fold change /veh CAPN14 (11732068_a_at) / RFU TMCC2 (11721928_a_at) / Fold change /veh TMCC2 (11721928_a_at) / RFU IRGQ (11745062_a_at) / Fold change /veh IRGQ (11745062_a_at) / RFU FAM174B (11720279_a_at) / Fold change /veh FAM174B (11720279_a_at) / RFU TMPRSS4 (11748680_a_at) / Fold change /veh TMPRSS4 (11748680_a_at) / RFU FAM212B (11763350_a_at) / Fold change /veh FAM212B (11763350_a_at) / RFU PLEKHG5 (11743358_a_at) / Fold change /veh PLEKHG5 (11743358_a_at) / RFU ZSCAN30 (11745921_a_at) / Fold change /veh ZSCAN30 (11745921_a_at) / RFU CMKLR1 (11741424_a_at) / Fold change /veh CMKLR1 (11741424_a_at) / RFU LOC101060620 /// MAPK8IP1 (11723275_at) / Fold change /veh LOC101060620 /// MAPK8IP1 (11723275_at) / RFU SPTSSB (11747773_x_at) / Fold change /veh SPTSSB (11747773_x_at) / RFU PRSS12 (11739890_at) / Fold change /veh PRSS12 (11739890_at) / RFU BIN1 (11741810_x_at) / Fold change /veh BIN1 (11741810_x_at) / RFU WNT11 (11732464_a_at) / Fold change /veh WNT11 (11732464_a_at) / RFU C10orf10 (11716521_a_at) / Fold change /veh C10orf10 (11716521_a_at) / RFU C5orf56 (11738089_at) / Fold change /veh C5orf56 (11738089_at) / RFU CYB561 (11721691_x_at) / Fold change /veh CYB561 (11721691_x_at) / RFU ANKRD19P (11752326_a_at) / Fold change /veh ANKRD19P (11752326_a_at) / RFU OR2T12 /// OR2T33 /// OR2T8 (11738714_s_at) / Fold change /veh OR2T12 /// OR2T33 /// OR2T8 (11738714_s_at) / RFU VCAN (11748164_a_at) / Fold change /veh VCAN (11748164_a_at) / RFU JSRP1 (11732532_at) / Fold change /veh JSRP1 (11732532_at) / RFU KRTAP10-11 (11738290_x_at) / Fold change /veh KRTAP10-11 (11738290_x_at) / RFU MYO3A (11730013_a_at) / Fold change /veh MYO3A (11730013_a_at) / RFU EBF3 (11725865_a_at) / Fold change /veh EBF3 (11725865_a_at) / RFU CAMK2N1 (11719241_x_at) / Fold change /veh CAMK2N1 (11719241_x_at) / RFU C5orf56 (11738088_a_at) / Fold change /veh C5orf56 (11738088_a_at) / RFU OLFML3 (11715873_a_at) / Fold change /veh OLFML3 (11715873_a_at) / RFU LOC100653217 /// NTM (11731650_a_at) / Fold change /veh LOC100653217 /// NTM (11731650_a_at) / RFU MAPK11 (11762145_a_at) / Fold change /veh MAPK11 (11762145_a_at) / RFU FIZ1 (11724087_x_at) / Fold change /veh FIZ1 (11724087_x_at) / RFU OASL (11726364_x_at) / Fold change /veh OASL (11726364_x_at) / RFU SOX15 (11748057_x_at) / Fold change /veh SOX15 (11748057_x_at) / RFU CD79A (11719716_a_at) / Fold change /veh CD79A (11719716_a_at) / RFU HIST1H1D (11736915_at) / Fold change /veh HIST1H1D (11736915_at) / RFU CASKIN2 (11723855_a_at) / Fold change /veh CASKIN2 (11723855_a_at) / RFU LOC730098 (11760151_x_at) / Fold change /veh LOC730098 (11760151_x_at) / RFU OR4N2 (11742367_at) / Fold change /veh OR4N2 (11742367_at) / RFU PRRT2 (11749266_a_at) / Fold change /veh PRRT2 (11749266_a_at) / RFU SNX32 (11753110_a_at) / Fold change /veh SNX32 (11753110_a_at) / RFU CDHR5 (11726645_a_at) / Fold change /veh CDHR5 (11726645_a_at) / RFU RCAN1 (11760418_a_at) / Fold change /veh RCAN1 (11760418_a_at) / RFU FAM167A (11723789_a_at) / Fold change /veh FAM167A (11723789_a_at) / RFU FAM26E (11764081_at) / Fold change /veh FAM26E (11764081_at) / RFU ISYNA1 (11749810_s_at) / Fold change /veh ISYNA1 (11749810_s_at) / RFU ACY1 (11761880_at) / Fold change /veh ACY1 (11761880_at) / RFU 11764098_at / Fold change /veh 11764098_at / RFU SAMD14 (11745864_x_at) / Fold change /veh SAMD14 (11745864_x_at) / RFU NPB (11741838_a_at) / Fold change /veh NPB (11741838_a_at) / RFU TMPRSS6 (11731388_a_at) / Fold change /veh TMPRSS6 (11731388_a_at) / RFU KRTAP10-2 (11738614_at) / Fold change /veh KRTAP10-2 (11738614_at) / RFU ARHGAP8 /// PRR5-ARHGAP8 (11727945_x_at) / Fold change /veh ARHGAP8 /// PRR5-ARHGAP8 (11727945_x_at) / RFU KRTAP5-7 /// NADSYN1 (11734609_at) / Fold change /veh KRTAP5-7 /// NADSYN1 (11734609_at) / RFU RASL12 (11751679_a_at) / Fold change /veh RASL12 (11751679_a_at) / RFU CDKN2B (11736163_a_at) / Fold change /veh CDKN2B (11736163_a_at) / RFU PRF1 (11729649_at) / Fold change /veh PRF1 (11729649_at) / RFU, ZNF638 /// ZNF638-IT1 / Fold change vs veh, ZNF638 /// ZNF638-IT1 / RFU, PANK3 / Fold change vs veh, PANK3 / RFU, SH3YL1 / Fold change vs veh, SH3YL1 / RFU, ZEB2 / Fold change vs veh, ZEB2 / RFU, NRIP1 / Fold change vs veh, NRIP1 / RFU, PTTG1IP / Fold change vs veh, PTTG1IP / RFU, CAPN2 / Fold change vs veh, CAPN2 / RFU, MED14 / Fold change vs veh, MED14 / RFU, SNORA58 / Fold change vs veh, SNORA58 / RFU, C1orf63 / Fold change vs veh, C1orf63 / RFU, LRRFIP1 / Fold change vs veh, LRRFIP1 / RFU, NDUFAF7 / Fold change vs veh, NDUFAF7 / RFU, SLC12A2 / Fold change vs veh, SLC12A2 / RFU, IBTK / Fold change vs veh, IBTK / RFU, ESF1 / Fold change vs veh, ESF1 / Fold change vs veh, TMEM50B / RFU, TAOK1 / Fold change vs veh, TAOK1 / RFU, ACBD3 / Fold change vs veh, ACBD3 / RFU, TMA16 / Fold change vs veh, TMA16 / RFU, RWDD3 / Fold change vs veh, RWDD3 / RFU, BCAT1 / Fold change vs veh, BCAT1 / RFU, EDEM3 / Fold change vs veh, EDEM3 / RFU, TMEM33 / Fold change vs veh, TMEM33 / RFU, WDR75 / Fold change vs veh, WDR75 / RFU, AHCTF1 / Fold change vs veh, AHCTF1 / RFU, TFRC / Fold change vs veh, TFRC / RFU, ZDHHC17 / Fold change vs veh, ZDHHC17 / RFU, NOM1 / Fold change vs veh, NOM1 / RFU, ARL8B / Fold change vs veh, ARL8B / RFU, ZBTB11 / Fold change vs veh, ZBTB11 / RFU, TAMM41 / Fold change vs veh, TAMM41 / RFU, KIAA1704 /// LOC100996395 / Fold change vs veh, KIAA1704 /// LOC100996395 / RFU, ING1 / Fold change vs veh, ING1 / RFU, TRMT61B / Fold change vs veh, TRMT61B / RFU, FUBP3 / Fold change vs veh, FUBP3 / RFU, TP53 / Fold change vs veh, TP53 / RFU, TNKS2 / Fold change vs veh, TNKS2 / RFU, ZFP14 / Fold change vs veh, ZFP14 / RFU, ACTR2 / Fold change vs veh, ACTR2 / RFU, PPP3R1 / Fold change vs veh, PPP3R1 / RFU, PIK3R1 / Fold change vs veh, PIK3R1 / RFU, HNRNPA1 / Fold change vs veh, HNRNPA1 / RFU, RNF170 / Fold change vs veh, RNF170 / RFU, ZNF28 / Fold change vs veh, ZNF28 / RFU, RNGTT / Fold change vs veh, RNGTT / RFU, OGT / Fold change vs veh, OGT / RFU, BRD1 / Fold change vs veh, BRD1 / RFU, MARS / Fold change vs veh, MARS / RFU, ZNF655 / Fold change vs veh, ZNF655 / RFU, FAHD1 / Fold change vs veh, FAHD1 / RFU, BDP1 / Fold change vs veh, BDP1 / RFU, LRRCC1 / Fold change vs veh, LRRCC1 / RFU, ARID1A / Fold change vs veh, ARID1A / RFU, ZNF146 / Fold change vs veh, ZNF146 / RFU, ZNF330 / Fold change vs veh, ZNF330 / RFU, GPN3 / Fold change vs veh, GPN3 / RFU, C9orf123 / Fold change vs veh, C9orf123 / RFU, N4BP2L2 / Fold change vs veh, N4BP2L2 / RFU, ARFIP1 / Fold change vs veh, ARFIP1 / RFU, FAM179B / Fold change vs veh, FAM179B / RFU, BCL10 / Fold change vs veh, BCL10 / RFU, UHRF1BP1L / Fold change vs veh, UHRF1BP1L / RFU, BET1 / Fold change vs veh, BET1 / RFU, CNOT2 / Fold change vs veh, CNOT2 / RFU, ZNF268 / Fold change vs veh, ZNF268 / Fold change vs veh, ZNF507 / RFU, DGCR2 / Fold change vs veh, DGCR2 / RFU, WDSUB1 / Fold change vs veh, WDSUB1 / Fold change vs veh, HSP90B1 /// MIR3652 / RFU, ADSS / Fold change vs veh, ADSS / RFU, GK / Fold change vs veh, GK / RFU, ZNF148 / Fold change vs veh, ZNF148 / RFU, TAF9 / Fold change vs veh, TAF9 / RFU, SLC1A5 / Fold change vs veh, SLC1A5 / RFU, SLMO2 / Fold change vs veh, SLMO2 / RFU, ABCC4 / Fold change vs veh, ABCC4 / RFU, LOC101060439 /// RAP1B / Fold change vs veh, LOC101060439 /// RAP1B / RFU, RFX7 / Fold change vs veh, RFX7 / RFU, GTPBP10 / Fold change vs veh, GTPBP10 / RFU, CNEP1R1 / Fold change vs veh, CNEP1R1 / RFU, BIVM-ERCC5 /// ERCC5 / Fold change vs veh, BIVM-ERCC5 /// ERCC5 / RFU, ILF3 / Fold change vs veh, ILF3 / RFU 11762660_at / Fold change /veh 11762660_at / RFU VCAN (11757783_s_at) / Fold change /veh VCAN (11757783_s_at) / RFU DDX43 (11728927_at) / Fold change /veh DDX43 (11728927_at) / RFU KRT8 (11758188_x_at) / Fold change /veh KRT8 (11758188_x_at) / RFU NKD1 (11759106_at) / Fold change /veh NKD1 (11759106_at) / RFU SRD5A1 (11742802_a_at) / Fold change /veh SRD5A1 (11742802_a_at) / RFU TPSAB1 /// TPSB2 (11721975_s_at) / Fold change /veh TPSAB1 /// TPSB2 (11721975_s_at) / RFU GSTM3 (11746129_a_at) / Fold change /veh GSTM3 (11746129_a_at) / RFU IL23R (11737362_x_at) / Fold change /veh IL23R (11737362_x_at) / RFU TMEM51 (11727254_a_at) / Fold change /veh TMEM51 (11727254_a_at) / RFU PIWIL2 (11732686_x_at) / Fold change /veh PIWIL2 (11732686_x_at) / RFU ORM1 (11744905_x_at) / Fold change /veh ORM1 (11744905_x_at) / RFU CCDC152 (11743942_at) / Fold change /veh CCDC152 (11743942_at) / RFU ECM1 (11717891_a_at) / Fold change /veh ECM1 (11717891_a_at) / RFU IL23R (11748794_a_at) / Fold change /veh IL23R (11748794_a_at) / RFU TNFAIP8L3 (11732012_x_at) / Fold change /veh TNFAIP8L3 (11732012_x_at) / RFU MBOAT4 (11741988_at) / Fold change /veh MBOAT4 (11741988_at) / RFU 11764193_at / Fold change /veh 11764193_at / RFU TMEM53 (11763286_at) / Fold change /veh TMEM53 (11763286_at) / RFU MAGEB2 (11727129_at) / Fold change /veh MAGEB2 (11727129_at) / RFU TMEM200A (11744735_a_at) / Fold change /veh TMEM200A (11744735_a_at) / RFU CCDC152 (11751479_a_at) / Fold change /veh CCDC152 (11751479_a_at) / RFU FAM211A (11726209_a_at) / Fold change /veh FAM211A (11726209_a_at) / RFU RGS16 (11746705_a_at) / Fold change /veh RGS16 (11746705_a_at) / RFU VCAN (11755009_s_at) / Fold change /veh VCAN (11755009_s_at) / RFU RHOB (11743442_s_at) / Fold change /veh RHOB (11743442_s_at) / RFU RGS16 (11720943_a_at) / Fold change /veh RGS16 (11720943_a_at) / RFU RGS16 (11720944_at) / Fold change /veh RGS16 (11720944_at) / RFU, VPS4B / Fold change vs veh, VPS4B / RFU, CREB1 / Fold change vs veh, CREB1 / RFU, DNAJC13 / Fold change vs veh, DNAJC13 / RFU, GNAQ / Fold change vs veh, GNAQ / RFU, CDK5R1 / Fold change vs veh, CDK5R1 / RFU, ZRANB3 / Fold change vs veh, ZRANB3 / RFU, CUL4A / Fold change vs veh, CUL4A / RFU, CCNY / Fold change vs veh, CCNY / RFU, UFL1 / Fold change vs veh, UFL1 / RFU, COG3 / Fold change vs veh, COG3 / RFU, DIAPH2 / Fold change vs veh, DIAPH2 / RFU, SKA2 / Fold change vs veh, SKA2 / RFU, AFF3 / Fold change vs veh, AFF3 / RFU, LMF1 / Fold change vs veh, LMF1 / RFU, IPO11 / Fold change vs veh, IPO11 / RFU, DFFB / Fold change vs veh, DFFB / RFU, FOXP1 / Fold change vs veh, FOXP1 / RFU, CARD8 / Fold change vs veh, CARD8 / RFU, STRN3 / Fold change vs veh, STRN3 / RFU, ADK / Fold change vs veh, ADK / RFU, RASSF2 / Fold change vs veh, RASSF2 / RFU, WIPF1 / Fold change vs veh, WIPF1 / RFU, LARP1B / Fold change vs veh, LARP1B / RFU, RASA1 / Fold change vs veh, RASA1 / RFU, RB1 / Fold change vs veh, RB1 / RFU, PPFIA1 / Fold change vs veh, PPFIA1 / RFU, MAT2A / Fold change vs veh, MAT2A / RFU, CCT5 / Fold change vs veh, CCT5 / RFU, WDR92 / Fold change vs veh, WDR92 / RFU, CUX1 / Fold change vs veh, CUX1 / RFU, TTC7A / Fold change vs veh, TTC7A / RFU, TMEM135 / Fold change vs veh, TMEM135 / RFU, DEPTOR / Fold change vs veh, DEPTOR / RFU, CPM / Fold change vs veh, CPM / RFU, DNAJB6 / Fold change vs veh, DNAJB6 / RFU, CACNA2D3 / Fold change vs veh, CACNA2D3 / RFU, DTX4 / Fold change vs veh, DTX4 / RFU, TFCP2 / Fold change vs veh, TFCP2 / RFU, GMCL1 /// GMCL1P1 / Fold change vs veh, GMCL1 /// GMCL1P1 / RFU, AEBP2 / Fold change vs veh, AEBP2 / RFU, SNHG1 /// SNORD22 /// SNORD25 /// SNORD26 /// SNORD27 /// SNORD28 /// SNORD29 /// SNORD31 / Fold change vs veh, SNHG1 /// SNORD22 /// SNORD25 /// SNORD26 /// SNORD27 /// SNORD28 /// SNORD29 /// SNORD31 / Fold change (Aza/veh), C12orf56 (ProbeSet 11735607_a_at) / Fold change (ACY-1035/veh), C12orf56 (ProbeSet 11735607_a_at) / Fold change (Aza/veh), FGFR1OP (ProbeSet 11751329_s_at) / Fold change (ACY-1035/veh), FGFR1OP (ProbeSet 11751329_s_at) / Fold change (Aza/veh), VPS36 (ProbeSet 11739960_a_at) / Fold change (ACY-1035/veh), VPS36 (ProbeSet 11739960_a_at) / RFU SYPL1 (11715823_x_at) / Fold change /veh SYPL1 (11715823_x_at) / RFU IGFBP7 (11715501_s_at) / Fold change /veh IGFBP7 (11715501_s_at) / RFU REEP3 (11722064_at) / Fold change /veh REEP3 (11722064_at) / RFU IGLL1 (11728026_x_at) / Fold change /veh IGLL1 (11728026_x_at): dose or concentration left out as unconfirmed", "details": "ProbeSet 11741311_a_at; LIST B"}
{"smiles": "Nc1ncn([C@@H]2O[C@H](CO)[C@@H](O)[C@H]2O)c(=O)n1", "note": "[azacitidine]", "values": [{"measurement": "RFU, ZNF655", "value": 32.83, "unit": "RFU"}]}
